Data taken from PubChem BioAssay AID449764 (Southern Research Specialized Biocontainment Screening …, 2010).

Test system: Mycobacterium tuberculosis H37Rv growth inhibition, no glycerol
Test: Confirmatory growth inhibition assay, Mycobacterium tuberculosis H37Rv, absence of glycerol (AID 449764);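 further: growth read after 7 days of incubation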
Settings: for IC90: measured here: IC90 growth inhibition

| Structure (SMILES) | IC50 | IC90 |
| --- | --- | --- |
| Cc1cccc(N2CCN(CC(=O)Nc3nccs3)CC2)c1C | 39.3 µM | 69.2 µM |
| Cc1cccc(N2CCN(CCCNC(=O)c3ccc(NC(=O)C4=CSCCO4)cc3)CC2C)c1 (centres undefined) | 19.7 µM | 28.7 µM |
| CNc1nc(-c2ccccn2)nnc1-c1ccccc1 | 22.7 µM | 25.4 µM |
| O=C(CCl)NCCCCCCCCCNC(=O)CCl | < 0.2 µM | > 100 µM |
| COC(=O)COc1ccc(-c2nn(C)c(=O)c3ccccc23)cc1 | 13.1 µM | 58.5 µM |
| CCOC(=O)CSc1nc(N)c(C(=O)Nc2ccc(N(C)C)cc2)s1 | 4.23 µM | 9.77 µM |
| O=c1c(C=Nc2ccc(Oc3ccccc3)cc2)c[nH]n1-c1cccc(Cl)n1 | 23.3 µM | > 100 µM |
| O=C(CCS(=O)(=O)c1ccc(F)cc1)Nc1nc(-c2ccccn2)cs1 | 12.8 µM | 29.1 µM |
| CC(C)[C@H](CO)N(Cc1cccc(F)c1)c1nc(Nc2cccc(Cl)c2)c2ncn(C(C)C)c2n1 | 37.5 µM | 57.4 µM |
| CCOc1ccc2nc(N/C(N)=N/C(=S)Nc3cccc(C)c3)nc(C)c2c1 | 36 µM | > 100 µM |
| COc1cc(NC(=O)C/C(C)=N/NC(=O)c2ccccn2)c(OC)cc1Cl | 5.83 µM | 9.98 µM |
| Cc1cccc(NS(=O)(=O)c2ccc(C(=O)N3CCN(c4ccccc4O)CC3)cc2)c1C | 85.5 µM | > 100 µM |
| CCOc1cc2c(cc1OCC)-n1cccc1C(c1ccc(C(C)C)cc1)NC2 (centres undefined) | 20.2 µM | 28.7 µM |
| CCn1c(C)c(C)c2cc(C(=O)Nc3cccc(Cl)c3)ccc21 | 36.2 µM | > 100 µM |
| C/C(=N\NC(=O)c1ccc(O)cc1)c1ccc2c(c1)Nc1ccccc1S2 | 50.2 µM | 95.6 µM |
| CCOC(=O)c1ccc2c(c1)C(=O)N(C1CCCCC1)C2=O | 85 µM | > 100 µM |
| O=C(C1CCCN(c2ncnc3c2nc2n3CCCCC2)C1)N1CCN(c2ccc(Cl)cc2)CC1 (centres undefined) | 38.1 µM | 51 µM |
| Cc1ccc2c(c1)c(C1=c3ccccc3=NC1=O)c(O)n2C | 2.95 µM | 4.82 µM |
| CC1CCCCC1NC(=O)c1ccc2c(c1)[nH]c(=O)n2C1CCCC1 (centres undefined) | 9.65 µM | 14.1 µM |
| N#Cc1nccnc1S(=O)(=O)c1cccs1 | 59.3 µM | 73.3 µM |
| Cc1ccc(C(C(=O)NCC2CCCO2)N(Cc2ccccc2)C(=O)c2ccc(-c3ccccc3)[nH]2)o1 (centres undefined) | 60.9 µM | > 100 µM |
| CC(=O)O[C@H]1C[C@@]2(C)[C@@H](C[C@@H](O)[C@H]3[C@@]4(C)CC[C@@H](O)[C@@H](C)[C@@H]4CC[C@@]32C)/C1=C(\CCC=C(C)C)C(=O)O | 2.94 µM | 6.55 µM |
| C/C(=N\NC(N)=S)c1ccc(Cl)s1 | 11.8 µM | 23.4 µM |

| Structure (SMILES) | IC50 | IC90 |
| --- | --- | --- |
| O=C1C2C(c3ccccc3)(C(=O)N1c1ccc(Cl)cc1)C2(c1ccccc1)c1ccccc1 (centres undefined) | 11.6 µM | 13.6 µM |
| CC(=O)OC1=Cc2c(ccc3ccc(=O)oc23)OC1(C)C | 47.9 µM | > 100 µM |
| CC(C)CNc1nnnc2c1sc1nc(N3CCOCC3)c3c(c12)CC(C)(C)SC3 |  | > 100 µM |
| C=CCOc1ccc(C2=NOC(C(=O)Nc3ccc4c(c3)OCCO4)C2)cc1 (centres undefined) | 41.4 µM | 60 µM |
| O=C1C(=O)N(c2ccccc2)c2ccccc21 | 17.8 µM | 34 µM |
| CN1CCN(Cn2cc(/C=C/C(=O)c3ccccc3)c3ccccc32)CC1 | 19.8 µM | 39.3 µM |
| COc1ccc(C2CC(=O)C3=C(C2)NC(C)=C(C#N)C3c2ccc(N(C)C)cc2)cc1 (centres undefined) | 22.2 µM | 35.6 µM |
| Cc1[nH]c2ccc(OC(F)(F)F)cc2c1CCNCc1ccc(Cl)cc1 | 14.2 µM | 18.8 µM |
| O=C(CCc1c[nH]c2ccccc12)N1CCN(S(=O)(=O)c2ccccc2)CC1 | 78.7 µM | > 100 µM |
| C=C(CCC(=O)c1ccccc1)C(=O)c1ccccc1 | 18 µM | 25.1 µM |
| Cn1c2ccccc2c2cc(C(=O)NNC(=O)CCl)sc21 | 4.41 µM | 8.11 µM |
| COc1ccc(N=c2cc(-c3ccc(O)cc3)oc3ccccc23)cc1 | 23.3 µM | 26.5 µM |
| COC(=O)c1ccc(COC(=O)CCc2nc(-c3ccccc3)c(-c3ccccc3)o2)cc1 | 44.9 µM | > 100 µM |
| CCNCC(=O)N1c2ccccc2CCc2ccc(NC(=O)OC(C)C)cc21 | 53.7 µM | 77 µM |
| Cc1nc(NC(=O)c2ccccc2)sc1C1(C)CC(c2ccc(OC(F)(F)F)cc2)=NO1 (centres undefined) | 29.7 µM | 60.4 µM |
| CCOC(=O)CNc1ccc(C(=O)OCC)cc1[N+](=O)[O-] | 18.1 µM | > 100 µM |
| O=C(c1ccc(-c2ccccc2)c(F)c1)C1CCCN(C(=O)c2cncs2)C1 (centres undefined) | 32.5 µM | 49.4 µM |
| CCOC(=O)COc1ccc2c(c1)C(=O)CC(C)(c1cccnc1)O2 (centres undefined) | 13.4 µM | 32.5 µM |
| O=C(CCn1c(=O)c2cccn2c2cccnc21)N1CCN(c2cccc(Cl)c2)CC1 | 30.6 µM | 46.9 µM |
| c1ccc(-c2cn3c(n2)CCc2ccc4cccnc4c2-3)cc1 | 22.4 µM | 25.4 µM |
| COC(=O)CCc1sc(Nc2ccc(Br)cc2)nc1-c1ccc(OC)cc1 | 40.9 µM | > 100 µM |
| Cc1ccc(C(=O)n2c(N)nc3ccccc32)cc1 | 89.9 µM | > 100 µM |
| CC(C)CCC[C@@H](C)[C@H]1CC[C@H]2[C@@H]3C(=O)C=C4C[C@@H](O)CC[C@]4(C)[C@H]3CC[C@]12C | 38.5 µM | 62.9 µM |

| Structure (SMILES) | IC50 | IC90 |
| --- | --- | --- |
| CC1CN(c2ccc([N+](=O)[O-])c(NCCOc3ccc(Cl)cc3)c2)CC(C)N1 (centres undefined) | 15.5 µM | 31.2 µM |
| COc1ccc(-c2cc(C3CCN(C(=O)OC(C)(C)C)CC3)[nH]n2)cc1 | 38.7 µM | 53.7 µM |
| O=C(COc1ccccc1)NNc1nc2ccccc2s1 | 92.8 µM | > 100 µM |
| CCOC(=O)CCCc1ccc(/C(C)=N/NC(N)=S)cc1 | 8.39 µM | 25 µM |
| COc1cccc(/C=N/Nc2ncnc3scc(-c4ccccc4)c23)c1O | 5.65 µM | 6.44 µM |
| Cc1cc(C(=O)CCl)c(C)n1-c1cccc([N+](=O)[O-])c1 | 2.42 µM | 6.49 µM |
| Cc1cccc(CNc2ncnc3ccc(-c4ccc5c(c4)OCCO5)cc23)c1 | 10.1 µM | 12.7 µM |
| NNC(=S)Nc1ccccc1Cl | 83.8 µM | 93 µM |
| CC(C)(C)C1CCc2sc(-c3nnc(CCl)o3)cc2C1 (centres undefined) | 5.74 µM | 19.5 µM |
| COc1cc(CNCCc2ccccc2)cc(Cl)c1OCc1ccccc1 | 23.8 µM | 26.2 µM |
| c1ccc(-c2ccc(C(c3ccccc3)n3ccnc3)cc2)cc1 (centres undefined) | 23.2 µM | 26.4 µM |
| CCSc1ccc2c(c1)N(CCCN1CCN(C)CC1)c1ccccc1S2 | 23.1 µM | 27.2 µM |
| O=Nc1c2nc3ccccc3n(O)c-2c2ccccc12 | 12.2 µM | 13.7 µM |
| CCOc1cc(NC(=O)CCl)c(OCC)cc1NC(C)=O | 0.95 µM | 51.8 µM |
| COc1cccc(-c2cnc(NCc3cc(Cl)ccc3O)n2C)c1 | 21.1 µM | 23.4 µM |
| COc1ccc(-c2nnc3sc(C4CCCCC4)nn23)cc1OC | 45.6 µM | 51.6 µM |
| COc1cc(/C=C2\C(=O)N(c3ccc(S(N)(=O)=O)cc3)N=C2C)ccc1OC(=O)c1ccco1 | 22.6 µM | 26.1 µM |
| Cc1nc(-c2nc(-c3c(C(=O)NNC(=O)c4ccc(Cl)cc4)noc3C)cs2)cs1 | 24.7 µM | > 100 µM |
| CSc1nn(-c2ccc(C(=O)OCC(=O)NC(=O)NC(C)C)cc2)c(=S)s1 | 35.7 µM | 48.9 µM |
| NC(=S)NNc1ccc(Cl)c(Cl)c1 | 7.82 µM | 12.1 µM |
| CCc1ccc2c(c1)/C(=C/C(=O)c1cccs1)C(=O)N2 | 2.55 µM | 4.12 µM |
| CC(C)=N/N=C1/NC(=O)C(Cc2ccccc2)S1 (centres undefined) | 76.5 µM | 97.2 µM |
| O=C(OCc1nc2ccccc2s1)c1ccc(Br)o1 | 33.5 µM | > 50 µM |

| Structure (SMILES) | IC50 | IC90 |
| --- | --- | --- |
| CNC(=S)/N=C/NOCc1c(Cl)cccc1Cl | 2.96 µM | 3.35 µM |
| O=C(NCCc1ccc(Cl)cc1)c1ccc(CS(=O)Cc2ccc(Cl)cc2)o1 (centres undefined) | 45.2 µM | 52.1 µM |
| c1ccc(-c2nc3nonc3nc2-c2ccccc2)cc1 | 28.9 µM | 39.4 µM |
| Cc1ccc(N2CCN(C(=O)c3cn(CC4CCCCC4)nn3)C(C)C2)cc1 (centres undefined) | 39.5 µM | 50.3 µM |
| O=C(OCC(=O)c1cccs1)C1=COCCO1 | 29.9 µM | > 100 µM |
| Cc1cc(C)cc(NC(=O)CCc2ccc(C)o2)c1 | 92.9 µM | > 100 µM |
| O=C1/C(=C/Nc2ccc3c(c2)OCO3)CCc2ccccc21 | 74.7 µM | > 100 µM |
| Cc1[nH]c2ccccc2c1/C=N/Nc1nc(Nc2ccccc2)nc(N2CCOCC2)n1 | 6.68 µM | 13.6 µM |
| Cn1c(SCc2ccccc2)nc(N)c(N=O)c1=O | 18.4 µM | 25.6 µM |
| COc1ccc(/C=N/OCC(=O)OCC(=O)N(C)c2ccccc2)cc1 | 25.9 µM | 51.8 µM |
| C/C(=N/Nc1ccnc2cc(Cl)ccc12)c1ccc(O)cc1 | 30.1 µM | 36.2 µM |
| Cc1ccc(-n2c(C)cc(/C=N/NC(N)=S)c2C)cc1 | 12.2 µM | 20 µM |
| COc1ccc2nc(N=NC3=C(O)CC(C)(C)CC3=O)sc2c1 | 13.5 µM | 17.2 µM |
| CCOc1ccc2nc(NC(=O)C34CC5CC(CC(NC(C)=O)(C5)C3)C4)sc2c1 | 23.2 µM | 38.4 µM |
| Cc1ccc2[nH]c(C(=O)NN=C3CCCCC3)c(-c3ccccc3)c2c1 | 33.6 µM | 53.3 µM |
| COc1cc2nc(Nc3ccc(C)c(Cl)c3)nc(N)c2cc1OC | 58.7 µM | 66.8 µM |
| CCN(CC)c1ccc2c(Cl)c(Br)c(=O)oc2c1 | 22.6 µM | 61.6 µM |
| O=[N+]([O-])c1ccc(O)c(-c2cc(C(F)(F)F)nc(-c3ccccc3)n2)c1 | 20.4 µM | 22.1 µM |
| CC1CCCC(C)N1/N=C/c1c[nH]c2ccc(Br)cc12 (centres undefined) | 22.7 µM | 29.1 µM |
| Cc1cc(C(=O)COC(=O)C2=COCCO2)c(C)n1-c1cccc(F)c1 | 9.64 µM | > 100 µM |
| COc1ccc(NC(=O)CSC2CCCCC2)cc1 | 76.3 µM | > 100 µM |
